Results on three compounds are retold here after patent US20030113268A1, “Degradation-resistant glucocorticosteroid formulations” (priority 2000, published 2003).

The series can be described thus: Comparison of radical quenchers: impurities on storage at 40° C. and 75% relative humidity, uncoated canisters. The conditions noted are these: for effectiveness in reducing degradation of the budesonide formulations: Tables X-XII, 40° C./75% relative humidity. It counts as physicochemical. The source says: To compare the effectiveness of various radical quenchers in preventing degradation of budesonide formulations, formulations containing budesonide, HFA-134a, ethanol, and a radical quencher were made in uncoated canisters using the steps described in Example I. The compositions of the formulations are shown in Table IX. Formulations were made containing each radical quencher with and without 3% aqueous hydrogen peroxide. The hydrogen peroxide was included in some formulations to challenge the radical quencher.
The initial impurities in each formulation were measured, and the formulations were stored at 40° C. and 75% relative humidity. Impurities were measured again after 4 weeks and after 3 months. For selected formulations, impurities were also measured after 11 months.

Consider `CCCCCCCCCCCCCCCC(=O)OC[C@H](O)[C@H]1OC(=O)C(O)=C1O` [ascorbyl palmitate], for which the “effectiveness in reducing degradation of the budesonide formulations” value (shortened to “effectiveness in reducing degradation”) is “very effective”. Also, under “budesonide/ethanol/HFA-134a formulations”, the “physical stability of formulations including the radical quencher (clumping)” value is “tended to form clumps of solid matter”.

For Vitamin E, the “effectiveness in reducing degradation” value is “effectively reduced degradation”.

For the compound `COc1ccc(O)c(C(C)(C)C)c1` [butylated hydroxyanisole (BHA), butylated hydroxyanisole], the “effectiveness in reducing degradation” value is recorded as “very effective”.
